Results as given in patent US20240384350A1, “METHODS OF TREATING CANCER WITH KINASE INHIBITORS” (BOARD OF REGENTS, THE UNIVERSITY OF TEXAS SYSTEM, priority 2021, published 2024).

Key:
Experiment in all cases: Ba/F3 drug screening, Cell Titer Glo, IC50 Mut/WT
Type in all cases: cell-based
[1] = biological target: T1, EGFR Ex19del/T790M/L792H (Homo sapiens, UniProt P00533, DEL746-750/L792H/T790M); settings: T790M-like-3R, 72 hours
T1 construct: expressed in transfected cells; host or cells: Ba/F3

[2] = biological target: T2, EGFR G719S T790M (Homo sapiens, UniProt P00533, G719S/T790M); settings: T790M-like-3S, 72 hours
T2 construct: expressed in transfected cells; host or cells: Ba/F3
Experimental: (§1) Data represent the ratio of the IC50 value for a given TKI for cells with a T790M-like-3S EGFR mutation to the IC50 value for cells with wildtype EGFR.
(§2) Ba/F3 cell generation, drug screening, and IC50 approximations. Ba/F3 cells were obtained as a gift from Dr. Gordon Mills (MD Anderson Cancer Center), and maintained in RPMI (Sigma) containing 10% FBS, 1% penicillin/streptomycin, and 10 ng/ml recombinant mIL-3 (R&D Biosystems). To establish stable Ba/F3 cell lines, Ba/F3 cells were transduced with retroviruses containing mutant EGFR plasmids for 12-24 hours.
(§3) After 48-72 hours of transduction, 2 μg/ml puromycin (Invitrogen) was added to Ba/F3 cell lines in complete RPMI. To select for EGFR positive cell lines, cells were stained with PE-EGFR (Biolegend) and sorted by FACS. After sorting, EGFR positive cells were maintained in RPMI containing 10% FBS, 1% penicillin/streptomycin, and 1 ng/ml EGF to support cell viability. Drug screening was performed as previously described^41,42. Shortly, cells were plated in 384-well plates (Greiner Bio-One) at 2000-3000 cells per well in technical triplicate. Seven different concentrations of TKIs or DMSO vehicle were added to reach a final volume of 40 μL per well. After 72 hours, 11 μL of Cell Titer Glo (Promega) was added to each well. Plates were incubated for a minimum of 10 minutes, and bioluminescence was determined using a FLUOstar OPTIMA plate reader (BMG LABTECH). Raw bioluminescence values were normalized to DMSO control treated cells, and values were plotted in GraphPad Prism. […] Drug screens were performed in technical triplicate on each plate and either duplicate or triplicate biological replicates.

[3] = biological target: T3, EGFR G719A T790M (Homo sapiens, UniProt P00533, G719A/T790M); settings: T790M-like-3S, 72 hours
T3 construct: expressed in transfected cells; host or cells: Ba/F3

[4] = biological target: T4, EGFR L861Q (Homo sapiens, UniProt P00533, L861Q); settings: Classical-Like, 72 hours
T4 construct: expressed in transfected cells; host or cells: Ba/F3 cells, retroviral pBabe-Puro vector
Experimental: (§4) Data represent the ratio of the IC50 value for a given TKI for cells with a classical-like EGFR mutation to the IC50 value for cells with wildtype EGFR.
as §2
(§5) After 48-72 hours of transduction, 2 μg/ml puromycin (Invitrogen) was added to Ba/F3 cell lines in complete RPMI. To select for EGFR positive cell lines, cells were stained with PE-EGFR (Biolegend) and sorted by FACS. After sorting, EGFR positive cells were maintained in RPMI containing 10% FBS, 1% penicillin/streptomycin, and 1 ng/ml EGF to support cell viability. […] Shortly, cells were plated in 384-well plates (Greiner Bio-One) at 2000-3000 cells per well in technical triplicate. Seven different concentrations of TKIs or DMSO vehicle were added to reach a final volume of 40 μL per well. After 72 hours, 11 μL of Cell Titer Glo (Promega) was added to each well. Plates were incubated for a minimum of 10 minutes, and bioluminescence was determined using a FLUOstar OPTIMA plate reader (BMG LABTECH). Raw bioluminescence values were normalized to DMSO control treated cells, and values were plotted in GraphPad Prism. […] Drug screens were performed in technical triplicate on each plate and either duplicate or triplicate biological replicates.

[5] = biological target: T5, EGFR T790M (Homo sapiens, UniProt P00533, T790M); settings: T790M-like-3S, 72 hours
T5 construct: expressed in transfected cells; host or cells: Ba/F3
Experimental: as §1, §2, §3

[6] = biological target: T6, EGFR N771dupN G724S (Homo sapiens, UniProt P00533, DUP771-771/G724S); settings: Ex20, 72 hours
T6 construct: expressed in transfected cells; host or cells: Ba/F3 cells, retroviral pBabe-Puro vector (vector made by GeneScript from EGFR G724S, c.2313_2314insAAC)

[7] = biological target: T7, EGFR Ex19del L718Q (Homo sapiens, UniProt P00533, DEL746-750/L718Q); settings: PACC; Ex19del L718Q; Ba/F3; 72 hours
T7 construct: expressed in transfected cells; host or cells: Ba/F3

[8] = biological target: T8, EGFR L747P (Homo sapiens, UniProt P00533, L747P); settings: PACC; L747P; Ba/F3; 72 hours
T8 construct: expressed in transfected cells; host or cells: Ba/F3

[9] = biological target: T9, EGFR V769L (Homo sapiens, UniProt P00533, V769L); settings: PACC; V769L; Ba/F3; 72 hours
T9 construct: expressed in transfected cells; host or cells: Ba/F3

[10] = tested on: EGFR I740dupIPVAK; settings: PACC; I740dupIPVAK; Ba/F3; 72 hours
[11] = biological target: T10, EGFR S768I/V769L (Homo sapiens, UniProt P00533, S768I/V769L); settings: PACC; S768I/V769L; Ba/F3; 72 hours
T10 construct: host or cells: Ba/F3
Experimental: (§6) Data represent the ratio of the IC50 value for a given TKI for cells with a PACC EGFR mutation to the IC50 value for cells with wildtype EGFR.
as §2, §3

[12] = biological target: T11, EGFR L858R/L718V (Homo sapiens, UniProt P00533, L718V/L858R); settings: PACC; L858R/L718V; Ba/F3; 72 hours
T11 construct: host or cells: Ba/F3

[13] = biological target: T12, EGFR Ex19del T790M L718V (Homo sapiens, UniProt P00533, DEL746-750/L718V/T790M); settings: T790M-like-3S, 72 hours
T12 construct: expressed in transfected cells; host or cells: Ba/F3
Experimental: as §1, §2, §3

[14] = biological target: T13, EGFR N771dupN (Homo sapiens, UniProt P00533, DUP771-771); settings: Ex20, 72 hours
T13 construct: expressed in transfected cells; host or cells: Ba/F3 cells, retroviral pBabe-Puro vector

[15] = biological target: T14, EGFR V774M (Homo sapiens, UniProt P00533, V774M); settings: PACC; V774M; Ba/F3; 72 hours
T14 construct: host or cells: Ba/F3

[16] = biological target: T15, EGFR E709A (Homo sapiens, UniProt P00533, E709A); settings: PACC; E709A; Ba/F3; 72 hours
T15 construct: expressed in transfected cells; host or cells: Ba/F3

[17] = biological target: T16, EGFR R776C (Homo sapiens, UniProt P00533, R776C); settings: PACC; R776C; Ba/F3; 72 hours
T16 construct: host or cells: Ba/F3

[18] = biological target: T17, EGFR L858R L718Q (Homo sapiens, UniProt P00533, L718Q/L858R); settings: PACC; L858R L718Q; Ba/F3; 72 hours
T17 construct: host or cells: Ba/F3

[19] = biological target: T18, EGFR G724S (Homo sapiens, UniProt P00533, G724S); settings: PACC; G724S; Ba/F3; 72 hours
T18 construct: expressed in transfected cells; host or cells: Ba/F3
Experimental: as §6, §2, §3

[20] = biological target: T19, EGFR S768I/T790M (Homo sapiens, UniProt P00533, S768I/T790M); settings: T790M-like-3S, 72 hours
T19 construct: expressed in transfected cells; host or cells: Ba/F3
Experimental: as §1, §2, §3

[21] = biological target: T20, EGFR S784F (Homo sapiens, UniProt P00533, S784F); settings: Classical-Like, 72 hours
T20 construct: expressed in transfected cells; host or cells: Ba/F3 cells, retroviral pBabe-Puro vector (vector made by GeneScript from EGFR WT)
Experimental: as §4, §2, §5

[22] = biological target: T21, EGFR E709A G719S (Homo sapiens, UniProt P00533, E709A/G719S); settings: PACC; E709A G719S; Ba/F3; 72 hours
T21 construct: expressed in transfected cells; host or cells: Ba/F3

[23] = biological target: T22, EGFR L858R T790M L792H (Homo sapiens, UniProt P00533, L792H/L858R/T790M); settings: T790M-like-3S, 72 hours
T22 construct: expressed in transfected cells; host or cells: Ba/F3

[24] = biological target: T23, EGFR L858R/T790M (Homo sapiens, UniProt P00533, L858R/T790M); settings: T790M-like-3S, 72 hours
T23 construct: expressed in transfected cells; host or cells: Ba/F3

[25] = biological target: T24, EGFR S768I V774M (Homo sapiens, UniProt P00533, S768I/V774M); settings: PACC; S768I V774M; Ba/F3; 72 hours
T24 construct: host or cells: Ba/F3
Experimental: as §6, §2, §3

[26] = biological target: T25, EGFR S768I (Homo sapiens, UniProt P00533, S768I); settings: PACC; S768I; Ba/F3; 72 hours
T25 construct: expressed in transfected cells; host or cells: Ba/F3
Experimental: as §6, §2
After 48-72 hours of transduction, 2 μg/ml puromycin (Invitrogen) was added to Ba/F3 cell lines in complete RPMI. To select for EGFR positive cell lines, cells were stained with PE-EGFR (Biolegend) and sorted by FACS. After sorting, EGFR positive cells were maintained in RPMI containing 10% FBS, 1% penicillin/streptomycin, and 1 ng/ml EGF to support cell viability. Drug screening was performed as previously described^41,42. Shortly, cells were plated in 384-well plates (Greiner Bio-One) at 2000-3000 cells per well in technical triplicate. Seven different concentrations of TKIs or DMSO vehicle were added to reach a final volume of 40 μL per well. After 72 hours, 11 μL of Cell Titer Glo (Promega) was added to each well. Plates were incubated for a minimum of 10 minutes, and bioluminescence was determined using a FLUOstar OPTIMA plate reader (BMG LABTECH). Raw bioluminescence values were normalized to DMSO control treated cells, and values were plotted in GraphPad Prism. […] Drug screens were performed in technical triplicate on each plate and either duplicate or triplicate biological replicates. […] Statistical differences between groups were determined by ANOVA as described in the figure legends.

[27] = biological target: T26, EGFR S811F (Homo sapiens, UniProt P00533, S811F); settings: Classical-Like, 72 hours
T26 construct: expressed in transfected cells; host or cells: Ba/F3 cells, retroviral pBabe-Puro vector (vector made by GeneScript from EGFR WT)
Experimental: as §4, §2, §5

ratio of IC50 for cells with mutant EGFR to IC50 for cells with wildtype EGFR (Mut/WT) [1]: 9.625
ratio of IC50 for cells with mutant EGFR to IC50 for cells with wildtype EGFR (Mut/WT) [2]: 8.021
ratio of IC50 for cells with mutant EGFR to IC50 for cells with wildtype EGFR (Mut/WT) [3]: 9.625
ratio of IC50 for cells with mutant EGFR to IC50 for cells with wildtype EGFR (Mut/WT) [4]: 0.08924
ratio of IC50 for cells with mutant EGFR to IC50 for cells with wildtype EGFR (Mut/WT) [5]: 21.82
ratio of IC50 for cells with mutant EGFR to IC50 for cells with wildtype EGFR (Mut/WT) [6]: 1.258
ratio of IC50 for cells with mutant EGFR to IC50 for cells with wildtype EGFR (Mut/WT) [7]: 4.812
ratio of IC50 for cells with mutant EGFR to IC50 for cells with wildtype EGFR (Mut/WT) [8]: 0.2937
ratio of IC50 for cells with mutant EGFR to IC50 for cells with wildtype EGFR (Mut/WT) [9]: 0.9765
ratio of IC50 for cells with mutant EGFR to IC50 for cells with wildtype EGFR (Mut/WT) [10]: 0.08984
ratio of IC50 for cells with mutant EGFR to IC50 for cells with wildtype EGFR (Mut/WT) [11]: 0.7072
ratio of IC50 for cells with mutant EGFR to IC50 for cells with wildtype EGFR (Mut/WT) [12]: 0.2408
ratio of IC50 for cells with mutant EGFR to IC50 for cells with wildtype EGFR (Mut/WT) [13]: 4.812
ratio of IC50 for cells with mutant EGFR to IC50 for cells with wildtype EGFR (Mut/WT) [14]: 1.567
ratio of IC50 for cells with mutant EGFR to IC50 for cells with wildtype EGFR (Mut/WT) [15]: 0.3139
ratio of IC50 for cells with mutant EGFR to IC50 for cells with wildtype EGFR (Mut/WT) [16]: 0.1241
ratio of IC50 for cells with mutant EGFR to IC50 for cells with wildtype EGFR (Mut/WT) [17]: 0.1522
ratio of IC50 for cells with mutant EGFR to IC50 for cells with wildtype EGFR (Mut/WT) [18]: 0.3765
ratio of IC50 for cells with mutant EGFR to IC50 for cells with wildtype EGFR (Mut/WT) [19]: 0.01105
ratio of IC50 for cells with mutant EGFR to IC50 for cells with wildtype EGFR (Mut/WT) [20]: 7.218
ratio of IC50 for cells with mutant EGFR to IC50 for cells with wildtype EGFR (Mut/WT) [21]: 0.0702
ratio of IC50 for cells with mutant EGFR to IC50 for cells with wildtype EGFR (Mut/WT) [22]: 0.2131
ratio of IC50 for cells with mutant EGFR to IC50 for cells with wildtype EGFR (Mut/WT) [23]: 9.625
ratio of IC50 for cells with mutant EGFR to IC50 for cells with wildtype EGFR (Mut/WT) [24]: 6.744
ratio of IC50 for cells with mutant EGFR to IC50 for cells with wildtype EGFR (Mut/WT) [25]: 0.2555
ratio of IC50 for cells with mutant EGFR to IC50 for cells with wildtype EGFR (Mut/WT) [26]: 0.145
ratio of IC50 for cells with mutant EGFR to IC50 for cells with wildtype EGFR (Mut/WT) [27]: 0.006423
SMILES: COc1cc2ncnc(Nc3cccc(Cl)c3F)c2cc1OC(=O)N1CCN(C)C[C@H]1C [AZD3759]
